Measurements as given in ChEMBL document CHEMBL5096194, “Development of Alectinib-Based PROTACs as Novel Potent Degraders of Anaplastic Lymphoma Kinase (ALK)” (J Med Chem, 2021).
Activity calls are given as the source filed them. The rule behind the calls is not given here.

Experiments:
[1] = target: T1, Protein cereblon/ALK tyrosine kinase receptor/Echinoderm microtubule-associated protein-like 4 (Homo sapiens) (UniProt Q9UM73+Q9HC35+Q96SW2); assay: Protac activity at CRBN/EML4-ALK in human NCI-H3122 cells assessed as induction of EML4-ALK fusion protein degradation at 1 uM incubated for 16 hrs by Western blot analysis relative to control; type: cell-based
[2] = tested on: NCI-H3122; assay: Antiproliferative activity against ALK-positive human NCI-H3122 cells assessed as inhibition of cell proliferation measured after 72 hrs by MTT assay; type: functional, cell-based; settings: NCI-H3122, 72 h
[3] = tested on: KARPAS-299; assay: Antiproliferative activity against ALK-positive human KARPAS-299 cells assessed as inhibition of cell proliferation measured after 72 hrs by MTT assay; type: functional, cell-based; settings: KARPAS-299, 72 h
[4] = target: Signal transducer and activator of transcription 3 (Homo sapiens) (UniProt P40763); assay: Inhibition of STAT3 phosphorylation in human KARPAS-299 cells as 0.01 to 1 uM measured after 24 hrs by Western blot analysis; type: cell-based; settings: dose 0.01-1 µM
[5] = target: T2, Protein cereblon/ALK tyrosine kinase receptor/Nucleophosmin (Homo sapiens) (UniProt Q9UM73+P06748+Q96SW2); assay: Protac activity at CRBN/NPM-ALK in human KARPAS-299 cells assessed as induction of NPM-ALK fusion protein degradation at 1 uM incubated for 24 hrs by Western blot analysis relative to control; type: cell-based
[6] = target: T3, ALK tyrosine kinase receptor (Homo sapiens, UniProt Q9UM73); assay: Inhibition of ALK phosphorylation in human KARPAS-299 cells at 0.01 to 1 uM measured after 24 hrs by Western blot analysis; type: cell-based; settings: dose 0.01-1 µM
Target sequence in this assay (Q9UM73 19-1620 limits assumed): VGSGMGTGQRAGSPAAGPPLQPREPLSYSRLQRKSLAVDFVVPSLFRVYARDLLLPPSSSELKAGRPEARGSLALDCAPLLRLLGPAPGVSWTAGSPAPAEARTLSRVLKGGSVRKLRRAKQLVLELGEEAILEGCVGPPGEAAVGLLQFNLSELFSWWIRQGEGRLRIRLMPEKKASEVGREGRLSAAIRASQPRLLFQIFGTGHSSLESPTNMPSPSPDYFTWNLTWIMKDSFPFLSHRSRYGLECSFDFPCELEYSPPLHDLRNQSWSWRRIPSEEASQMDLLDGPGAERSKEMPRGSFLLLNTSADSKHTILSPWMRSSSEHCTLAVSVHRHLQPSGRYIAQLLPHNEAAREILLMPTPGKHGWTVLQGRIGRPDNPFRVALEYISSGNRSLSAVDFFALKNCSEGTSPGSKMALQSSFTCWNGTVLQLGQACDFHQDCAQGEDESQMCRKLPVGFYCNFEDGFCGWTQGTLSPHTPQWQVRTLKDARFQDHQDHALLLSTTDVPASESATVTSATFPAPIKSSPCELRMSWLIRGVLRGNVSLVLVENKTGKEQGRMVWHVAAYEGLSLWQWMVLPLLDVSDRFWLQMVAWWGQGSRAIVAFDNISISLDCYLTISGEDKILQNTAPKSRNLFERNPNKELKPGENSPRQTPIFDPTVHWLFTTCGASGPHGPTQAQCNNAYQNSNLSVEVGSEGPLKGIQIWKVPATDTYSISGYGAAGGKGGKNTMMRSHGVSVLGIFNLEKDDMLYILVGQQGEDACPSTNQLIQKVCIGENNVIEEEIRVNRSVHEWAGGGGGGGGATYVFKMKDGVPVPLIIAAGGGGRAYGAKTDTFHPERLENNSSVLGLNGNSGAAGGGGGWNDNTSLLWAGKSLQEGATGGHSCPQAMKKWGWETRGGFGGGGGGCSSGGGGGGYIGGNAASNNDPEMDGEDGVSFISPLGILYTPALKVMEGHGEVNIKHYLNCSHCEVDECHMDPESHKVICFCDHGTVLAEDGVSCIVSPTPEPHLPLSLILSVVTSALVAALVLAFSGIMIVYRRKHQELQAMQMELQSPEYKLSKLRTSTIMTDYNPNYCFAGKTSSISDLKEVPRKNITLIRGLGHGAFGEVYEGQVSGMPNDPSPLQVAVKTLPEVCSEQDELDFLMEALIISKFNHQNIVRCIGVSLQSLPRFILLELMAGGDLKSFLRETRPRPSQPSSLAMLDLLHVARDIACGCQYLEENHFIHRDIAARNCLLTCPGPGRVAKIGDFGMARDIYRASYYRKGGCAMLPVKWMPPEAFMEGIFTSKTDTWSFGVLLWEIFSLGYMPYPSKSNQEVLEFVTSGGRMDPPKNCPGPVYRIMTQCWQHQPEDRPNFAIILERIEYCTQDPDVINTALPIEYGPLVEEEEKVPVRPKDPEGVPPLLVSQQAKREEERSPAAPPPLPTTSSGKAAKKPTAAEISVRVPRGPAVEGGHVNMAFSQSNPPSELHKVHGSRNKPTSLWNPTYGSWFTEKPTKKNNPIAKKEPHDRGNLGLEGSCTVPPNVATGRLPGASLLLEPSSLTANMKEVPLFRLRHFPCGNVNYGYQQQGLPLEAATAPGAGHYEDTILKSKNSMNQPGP

[7] = target: T2, Protein cereblon/ALK tyrosine kinase receptor/Nucleophosmin (Homo sapiens); assay: Protac activity at CRBN/NPM-ALK in human KARPAS-299 cells assessed as induction of NPM-ALK fusion protein degradation at 0.1 uM incubated for 24 hrs by Western blot analysis relative to control; type: cell-based
[8] = tested on: BaF3; assay: Antiproliferative activity against mouse BaF3 cells expressing wild type EML-ALK assessed as cell viability at 1 uM incubated for 72 hrs by Celltitre-Glo assay relative to control; type: functional; settings: read-out: Activity
[9] = tested on: BaF3; assay: Antiproliferative activity against crizotinib-resistant mouse BaF3 cells expressing EML-ALK L1152R mutant assessed as cell viability at 1 uM incubated for 72 hrs by Celltitre-Glo assay relative to control; type: functional; settings: read-out: Activity
[10] = tested on: BaF3; assay: Antiproliferative activity against crizotinib-resistant mouse BaF3 cells expressing EML-ALK L1196M mutant assessed as cell viability at 1 uM incubated for 72 hrs by Celltitre-Glo assay relative to control; type: functional; settings: read-out: Activity
[11] = tested on: BaF3; assay: Antiproliferative activity against crizotinib-resistant mouse BaF3 cells expressing EML-ALK G1202R mutant assessed as cell viability at 1 uM incubated for 72 hrs by Celltitre-Glo assay relative to control; type: functional; settings: read-out: Activity
[12] = target: T1, Protein cereblon/ALK tyrosine kinase receptor/Echinoderm microtubule-associated protein-like 4 (Homo sapiens); assay: Protac activity at CRBN/EML4-ALK in human NCI-H3122 cells assessed as induction of EML4-ALK fusion protein degradation at 0.1 uM incubated for 16 hrs by Western blot analysis relative to control; type: cell-based
[13] = target: T3, ALK tyrosine kinase receptor
Target sequence in this assay (Q9UM73 whole entry, the tested form may be a part): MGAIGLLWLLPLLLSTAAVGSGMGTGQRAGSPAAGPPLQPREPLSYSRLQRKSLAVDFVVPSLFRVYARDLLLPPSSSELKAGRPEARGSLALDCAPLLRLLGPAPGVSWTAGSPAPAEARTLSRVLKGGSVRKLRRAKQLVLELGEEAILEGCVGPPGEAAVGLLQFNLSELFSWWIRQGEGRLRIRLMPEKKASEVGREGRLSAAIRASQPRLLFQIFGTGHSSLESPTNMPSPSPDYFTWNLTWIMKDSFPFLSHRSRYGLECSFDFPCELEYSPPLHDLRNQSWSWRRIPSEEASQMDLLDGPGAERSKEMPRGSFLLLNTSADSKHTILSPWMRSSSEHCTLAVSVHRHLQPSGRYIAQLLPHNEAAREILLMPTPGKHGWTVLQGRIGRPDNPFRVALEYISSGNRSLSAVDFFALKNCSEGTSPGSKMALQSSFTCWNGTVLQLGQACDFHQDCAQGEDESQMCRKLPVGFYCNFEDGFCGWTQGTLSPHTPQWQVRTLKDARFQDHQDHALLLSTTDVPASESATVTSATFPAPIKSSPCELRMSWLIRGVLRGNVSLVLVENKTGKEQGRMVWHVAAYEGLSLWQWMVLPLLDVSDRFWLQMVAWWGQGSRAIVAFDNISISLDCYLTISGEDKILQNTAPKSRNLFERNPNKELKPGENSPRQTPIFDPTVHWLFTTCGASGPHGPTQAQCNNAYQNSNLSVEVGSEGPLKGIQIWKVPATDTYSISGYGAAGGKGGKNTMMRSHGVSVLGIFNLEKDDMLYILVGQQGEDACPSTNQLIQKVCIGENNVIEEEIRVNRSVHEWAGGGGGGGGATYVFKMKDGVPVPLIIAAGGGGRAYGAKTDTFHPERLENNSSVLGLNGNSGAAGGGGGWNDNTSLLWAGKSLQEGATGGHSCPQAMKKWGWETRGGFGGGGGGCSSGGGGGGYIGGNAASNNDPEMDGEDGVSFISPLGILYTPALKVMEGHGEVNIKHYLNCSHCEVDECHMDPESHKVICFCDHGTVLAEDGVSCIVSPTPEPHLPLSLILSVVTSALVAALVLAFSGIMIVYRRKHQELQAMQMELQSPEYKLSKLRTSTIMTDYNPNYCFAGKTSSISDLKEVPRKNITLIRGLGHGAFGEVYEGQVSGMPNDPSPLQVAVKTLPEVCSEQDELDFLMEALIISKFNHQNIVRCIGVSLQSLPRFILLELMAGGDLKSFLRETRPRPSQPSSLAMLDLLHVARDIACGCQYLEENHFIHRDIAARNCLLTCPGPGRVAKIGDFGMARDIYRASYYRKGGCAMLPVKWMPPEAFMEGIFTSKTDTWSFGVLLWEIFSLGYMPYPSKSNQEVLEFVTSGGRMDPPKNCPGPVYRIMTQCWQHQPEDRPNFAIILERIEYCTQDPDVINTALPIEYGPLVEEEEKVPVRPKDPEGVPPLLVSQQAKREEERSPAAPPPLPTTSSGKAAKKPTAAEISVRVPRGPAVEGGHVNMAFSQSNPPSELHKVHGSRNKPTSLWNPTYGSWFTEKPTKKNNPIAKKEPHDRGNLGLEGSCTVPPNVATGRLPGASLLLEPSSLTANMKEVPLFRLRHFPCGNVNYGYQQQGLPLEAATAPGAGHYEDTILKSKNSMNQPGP

[14] = tested on: BaF3; assay: Antiproliferative activity against mouse BaF3 cells assessed as cell viability at 1 uM incubated for 72 hrs by Celltitre-Glo assay relative to control; type: functional; settings: read-out: Activity
[15] = Toxicity in NCG mouse xenografted with human KARPAS-299 cells assessed as kidney damage at 20 mg/kg, po administered once every day for 3 weeks by H and E staining based analysis; type: organism-based; settings: in vivo, 504 h
[16] = Toxicity in NCG mouse xenografted with human KARPAS-299 cells assessed as body weight loss at 20 mg/kg, po administered once every day for 3 weeks; type: organism-based; settings: in vivo, 504 h
[17] = tested on: KARPAS-299; assay: Antitumor activity against human KARPAS-299 cells xenografted in NCG mouse assessed as reduction in tumor volume at 20 mg/kg, po administered once every day for 3 weeks and measured every 3 days; type: functional, organism-based
[18] = Toxicity in NCG mouse xenografted with human KARPAS-299 cells assessed as lung damage at 20 mg/kg, po administered once every day for 3 weeks by H and E staining based analysis; type: organism-based; settings: in vivo, 504 h
[19] = Toxicity in NCG mouse xenografted with human KARPAS-299 cells assessed as heart damage at 20 mg/kg, po administered once every day for 3 weeks by H & E staining based analysis; type: organism-based; settings: in vivo, 504 h
[20] = tested on: KARPAS-299; assay: Antitumor activity against human KARPAS-299 cells xenografted in NCG mouse assessed as tumor growth inhibition at 20 mg/kg, po administered once every day for 3 weeks and measured every 3 days relative to control; type: functional; settings: KARPAS-299, 504 h, read-out: TGI
[21] = target: Leukocyte tyrosine kinase receptor (Homo sapiens) (UniProt P29376); assay: Inhibition of LTK (unknown origin) at 10 nM relative to control
[22] = tested on: KARPAS-299; assay: Antitumor activity against human KARPAS-299 cells xenografted in NCG mouse assessed as reduction in tumor weight at 20 mg/kg, po administered once every day for 3 weeks and measured every 3 days; type: functional, organism-based
[23] = Toxicity in NCG mouse xenografted with human KARPAS-299 cells assessed as liver damage at 20 mg/kg, po administered once every day for 3 weeks by H and E staining based analysis; type: organism-based; settings: in vivo, 504 h
[24] = Toxicity in NCG mouse xenografted with human KARPAS-299 cells assessed as spleen damage at 20 mg/kg, po administered once every day for 3 weeks by H and E staining based analysis; type: organism-based; settings: in vivo, 504 h
[25] = tested on: KARPAS-299; assay: Antiproliferative activity against human KARPAS-299 cells assessed as inhibition of cell growth measured after 72 hrs by MTT assay; type: functional, cell-based; settings: KARPAS-299, 72 h

Sequence of Signal transducer and activator of transcription 3 (Homo sapiens) (P40763 whole entry, the tested form may be a part): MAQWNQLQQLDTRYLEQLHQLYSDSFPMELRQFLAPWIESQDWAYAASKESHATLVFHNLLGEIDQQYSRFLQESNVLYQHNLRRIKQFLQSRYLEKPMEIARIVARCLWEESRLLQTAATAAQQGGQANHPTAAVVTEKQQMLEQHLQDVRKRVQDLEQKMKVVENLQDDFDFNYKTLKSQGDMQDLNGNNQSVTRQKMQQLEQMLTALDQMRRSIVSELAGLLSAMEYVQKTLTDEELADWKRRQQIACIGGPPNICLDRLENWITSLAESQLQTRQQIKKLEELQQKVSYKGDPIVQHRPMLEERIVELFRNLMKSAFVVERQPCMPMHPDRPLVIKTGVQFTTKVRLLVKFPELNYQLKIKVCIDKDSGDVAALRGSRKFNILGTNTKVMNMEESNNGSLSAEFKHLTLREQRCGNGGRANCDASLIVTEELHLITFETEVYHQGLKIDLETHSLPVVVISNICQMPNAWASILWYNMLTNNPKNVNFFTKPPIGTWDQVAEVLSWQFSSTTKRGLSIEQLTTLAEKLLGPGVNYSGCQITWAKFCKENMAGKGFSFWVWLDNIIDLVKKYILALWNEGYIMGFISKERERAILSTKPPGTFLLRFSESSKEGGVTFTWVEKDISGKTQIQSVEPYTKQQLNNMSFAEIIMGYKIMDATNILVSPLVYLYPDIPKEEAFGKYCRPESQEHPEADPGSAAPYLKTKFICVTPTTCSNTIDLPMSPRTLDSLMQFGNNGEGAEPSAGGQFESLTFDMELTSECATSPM
T2 sequence (P06748 whole entry partner, the tested form may be a part): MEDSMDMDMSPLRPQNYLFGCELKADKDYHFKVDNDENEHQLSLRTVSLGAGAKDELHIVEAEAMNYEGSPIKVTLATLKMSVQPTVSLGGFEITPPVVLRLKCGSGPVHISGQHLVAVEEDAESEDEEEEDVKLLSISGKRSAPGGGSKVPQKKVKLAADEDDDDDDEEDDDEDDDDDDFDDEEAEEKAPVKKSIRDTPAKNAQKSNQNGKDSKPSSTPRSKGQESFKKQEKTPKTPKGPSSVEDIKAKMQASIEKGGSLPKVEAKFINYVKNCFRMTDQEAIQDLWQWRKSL
T2 sequence (Q96SW2 whole entry partner, the tested form may be a part): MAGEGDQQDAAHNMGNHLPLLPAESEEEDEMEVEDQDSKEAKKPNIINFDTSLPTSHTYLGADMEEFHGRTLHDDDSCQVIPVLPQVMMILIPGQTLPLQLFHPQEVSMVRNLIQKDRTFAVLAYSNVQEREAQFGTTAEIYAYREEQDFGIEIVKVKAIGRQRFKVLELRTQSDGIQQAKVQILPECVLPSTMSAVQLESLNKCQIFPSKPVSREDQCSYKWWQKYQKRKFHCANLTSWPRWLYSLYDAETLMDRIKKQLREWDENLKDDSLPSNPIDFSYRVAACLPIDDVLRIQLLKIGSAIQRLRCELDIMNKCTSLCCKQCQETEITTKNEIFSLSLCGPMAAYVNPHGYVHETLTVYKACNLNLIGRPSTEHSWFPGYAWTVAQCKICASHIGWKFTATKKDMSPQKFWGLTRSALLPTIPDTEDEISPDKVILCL
T2 sequence (Q9UM73 19-1620 limits assumed): as the sequence (Q9UM73 19-1620 limits assumed) above

Structure (SMILES)	Activity [1] [%]	IC50 [2] [nM]	IC50 [3] [nM]	inhibition [4]	Activity [5] [%]	inhibition [6]	Activity [7] [%]	Activity [12] [%]	viability at 1 µM [8] [%]	viability at 1 µM [9] [%]	viability at 1 µM [10] [%]	viability at 1 µM [11] [%]	other results
CCc1cc2c(cc1N1CCC(N3CCN(c4cccc5c4C(=O)N(C4CCC(=O)NC4=O)C5=O)CC3)CC1)C(C)(C)c1[nH]c3cc(C#N)ccc3c1C2=O (stereo not drawn)	50.6	612	640	–	–	–	–	–	–	–	–	–	–
CCc1cc2c(cc1N1CCN(CC(=O)NCCCCNc3cccc4c3C(=O)N(C3CCC(=O)NC3=O)C4=O)CC1)C(C)(C)c1[nH]c3cc(C#N)ccc3c1C2=O (stereo not drawn)	75.7	77	97	Active	76	Active	56.5	38.3	0.1	0	4.8	76.1	–
CCc1cc2c(cc1N1CCN(c3cccc4c3C(=O)N(C3CCC(=O)NC3=O)C4=O)CC1)C(C)(C)c1[nH]c3cc(C#N)ccc3c1C2=O (stereo not drawn)	50.2	186	101	–	29.9	–	–	24.3	–	–	–	–	–
CCc1cc2c(cc1N1CCNCC1)C(C)(C)c1[nH]c3cc(C#N)ccc3c1C2=O	–	38	46	–	–	–	–	–	0.2	0	0.1	0.5	IC50 [13]: 320 nM; viability at 1 µM [14]: 74%
CCc1cc2c(cc1N1CCC(N3CCN(C(=O)CNc4cccc5c4C(=O)N(C4CCC(=O)NC4=O)C5=O)CC3)CC1)C(C)(C)c1[nH]c3cc(C#N)ccc3c1C2=O (stereo not drawn)	96.9	107	107	Active	94.3	Active	72.8	77.3	–	–	–	–	–
CCc1cc2c(cc1N1CCN(CC(=O)NCCNc3cccc4c3C(=O)N(C3CCC(=O)NC3=O)C4=O)CC1)C(C)(C)c1[nH]c3cc(C#N)ccc3c1C2=O (stereo not drawn)	81.8	121	106	Active	57.8	Active	68.3	74.4	–	–	–	–	–
CCc1cc2c(cc1N1CCC(N3CCN(CC(=O)NCCCCNc4cccc5c4C(=O)N(C4CCC(=O)NC4=O)C5=O)CC3)CC1)C(C)(C)c1[nH]c3cc(C#N)ccc3c1C2=O (stereo not drawn)	87	96	119	–	–	–	–	49.9	0.1	0.1	3.6	70.9	–
CCc1cc2c(cc1N1CCN(CC(=O)NCCCCCCNc3cccc4c3C(=O)N(C3CCC(=O)NC3=O)C4=O)CC1)C(C)(C)c1[nH]c3cc(C#N)ccc3c1C2=O (stereo not drawn)	75.8	116	114	Active	69.8	Active	66.5	51.3	–	–	–	–	–
CCc1cc2c(cc1N1CCC(N3CCOCC3)CC1)C(C)(C)c1[nH]c3cc(C#N)ccc3c1C2=O [ALECTINIB]	–	45	47	–	–	–	–	–	0.1	0	1.9	73.3	Activity [15]: Non-Toxic; Activity [16]: Non-Toxic; Activity [17]: Active; Activity [18]: Non-Toxic; Activity [19]: Non-Toxic; inhibition in vivo at 20 mg/kg [20]: 63.8%; inhibition [21]: > 50%; Activity [22]: Active; viability at 1 µM [14]: 100%; Activity [23]: Non-Toxic; Activity [24]: Non-Toxic
Nc1cccc2c1C(=O)N(C1CCC(=O)NC1=O)C2=O (stereo not drawn) [POMALIDOMIDE]	–	–	–	–	–	–	–	–	–	–	–	–	IC50 [25]: > 10000 nM
CCc1cc2c(cc1N1CCC(N3CCN(CC(=O)NCCCCCCNc4cccc5c4C(=O)N(C4CCC(=O)NC4=O)C5=O)CC3)CC1)C(C)(C)c1[nH]c3cc(C#N)ccc3c1C2=O (stereo not drawn)	77.3	118	119	–	–	–	–	24.5	–	–	–	–	–

More lines, main results first:

Activity [1] [%]	IC50 [2] [nM]	IC50 [3] [nM]	inhibition [4]	Activity [5] [%]	inhibition [6]	Activity [7] [%]	Activity [12] [%]	Structure (SMILES)	viability at 1 µM [8] [%]	viability at 1 µM [9] [%]	viability at 1 µM [10] [%]	viability at 1 µM [11] [%]	other results
–	92	66	Active	85.9	Active	77.4	–	CCc1cc2c(cc1N1CCN(C(=O)CCCNc3cccc4c3C(=O)N(C3CCC(=O)NC3=O)C4=O)CC1)C(C)(C)c1[nH]c3cc(C#N)ccc3c1C2=O (stereo not drawn)	–	–	–	–	–
–	272	275	–	–	–	–	–	CCc1cc2c(cc1N1CCN(C(=O)CNc3cccc4c3C(=O)N(C3CCC(=O)N(C)C3=O)C4=O)CC1)C(C)(C)c1[nH]c3cc(C#N)ccc3c1C2=O (stereo not drawn)	–	–	–	–	IC50 [13]: 30600 nM
–	269	245	Active	71.6	Active	55.1	–	CCc1cc2c(cc1N1CCN(C(=O)CCCCCNc3cccc4c3C(=O)N(C3CCC(=O)NC3=O)C4=O)CC1)C(C)(C)c1[nH]c3cc(C#N)ccc3c1C2=O (stereo not drawn)	–	–	–	–	–
–	40	50	–	–	–	–	–	CCc1cc2c(cc1N1CCC(N3CCNCC3)CC1)C(C)(C)c1[nH]c3cc(C#N)ccc3c1C2=O	0.2	0.1	0.1	0.3	IC50 [13]: 290 nM
91	121	111	–	–	–	–	47.8	CCc1cc2c(cc1N1CCC(N3CCN(CC(=O)NCCNc4cccc5c4C(=O)N(C4CCC(=O)NC4=O)C5=O)CC3)CC1)C(C)(C)c1[nH]c3cc(C#N)ccc3c1C2=O (stereo not drawn)	–	–	–	–	–
